In US10752900B2, “Oligonucleotides for modulating gene expression and uses thereof” (BIOGENERA S.P.A., priority 2012, dated 2020):

Key:
Format in all cases: cell-based, human
MYCN gene [1] = test: QT-PCR, MYCN mRNA in RH30 cells
Description: For the purpose of assessing the ability of the oligonucleotides of the present invention to modulate the expression of the target genes, their ability to reduce the quantity of messenger RNA was analyzed using the Real-Time PCR technique. For this purpose, use was made of 24-well plates, which were seeded with 5.0×10^4 cells with 0.3 ml of OPTI-MEM (GIBCO BRL) medium, 4% FBS and 2 mM L-glutammine (experiments in triplicate) per well. The cells were incubated for 24 hours at 37° C., in an atmosphere containing 5% CO2 to permit adherence to the base of the wells. Each oligonucleotide analyzed, except for the PNA oligonucleotides, was incubated beforehand with 2 μl of Lipofectamine 2000 (Invitrogen), with 0.3 mL of serum-free OPTI-MEM (GIBCO BRL) medium. For each well, the oligonucleotides were analyzed at the following final concentrations: • the antisense oligonucleotides siRNA and siRNA gapmer (i.e. the oligonucleotides containing one or more monomers of chemically modified nucleic acids at the 3' or 5' end, while in the central portion they have monomers of nucleic acids that have not been modified or have been modified at the level of the phosphodiester bond as a phosphorothioate bond) were used at 200 nM; • the antisense oligonucleotides containing phosphorothioate DNA monomers, the RNA antigene oligonucleotides (agRNA) and the oligonucleotides containing DNA monomers and LNA monomers were used at 10 μM; • the morpholino oligonucleotides were used at a concentration of 1 μM, and • the PNA oligonucleotides were administered at a concentration of 1 μM. The cells were treated with the oligonucleotides, adding FBS up to 4% 6 hours after administration of the same. After 24 hours the total RNA was extracted from each well and purified using the RNeasy Mini Kit (QIAGEN). Assays were performed on 8 cell lines obtained from 5 different human tumours which are correlated with MYCN expression, i.e.: • as a neuroblastoma model use was made of the cell lines Kelly, IMR-32 (where the MYCN gene is amplified and superexpressed) and SKNBE2c and LAN1 (where the MYCN gene is amplified and superexpressed and the p53 gene is mutated); • as a rabdomiosarcoma model use was made of the cell line RH30, where the MYCN gene is amplified and superexpressed; • as a Wilms' tumour model use was made of the cell line WiT49, where the MYCN gene is amplified and superexpressed; • as a retinoblastoma model use was made of the cell line Y79, where the MYCN gene is amplified and superexpressed; and • as a model of small cell lung cancer use was made of the cell line H69 where the MYCN gene is amplified and superexpressed. As a control, use was made of the same cell lines as listed above treated with sterile water instead of oligonucleotides. Each RNA sample was quantified (in duplicate) using a NanoDrop ND-1000 spectrophotometer (NanoDrop Technologies). The first strand of cDNA was produced using the cDNA Synthesis Kit for RT-PCR (Roche). For the cDNA synthesis reaction a total of 1 μg of RNA was used. For the real-time PCR, 10 ng of cDNA in a final volume of 20 μl was used with SYBR Green Master Mix 2× (Applied Biosystems) (3 identical experiments were conducted in triplicate). Two housekeeping genes were used as positive controls: GAPDH and beta-actin (ACTB). The conditions of the QT-PCR reaction were: 10 min at 95° C., 20 sec at 95° C., and 30 sec at 60° C., for 50 cycles. The PNAs having SEQ ID NO: 1-12 were also tested on different cell lines which overexpress MYCN (Kelly, SKNBE2c, RH30, […] 1 and H69). The results are shown in Table 6 and confirm the selectivity and specificity of the inhibition effect of the PNAs on the product of protein translation of the MYCN gene. Chimeric oligonucleotides comprising DNA monomers and LNA monomers and having the MYCN gene as their target were tested in vitro on alveolar rabdomyosarcoma cells (RH30). […]

[2] = system: rabdomyosarcoma cells (RH30); test: Cellular proliferation assay (ATP-Lite), RH30 cells
Description: For the purpose of assessing the gene modulation ability of the oligonucleotides of the present invention, the effect of their administration on cell viability was determined. For this purpose 5×10^3 cells per well were seeded into 96-well cell culture plates (experiments conducted in triplicate) with 100 μl of OPTI-MEM (GIBCO BRL) medium containing 4% FBS and 2 mM of L-glutammine. The PNA oligonucleotides were administered at different concentrations (1 μM-2.5 μM-5 μM-10 μM) in order to observe a dose-effect relationship. As regards all the other oligonucleotides, the concentrations at which they administered are listed in the paragraph: The viability of the treated cells was determined at 48, 72, 96 and 168 hours after treatment. Cell viability was assessed by means of an ATP-Lite assay (Luminescence ATP Detection Assay System, PerkinElmer) and is reported as the ratio between the average signal of the treated wells compared to the average value of the wells of untreated control cells. The cells were processed following the instructions provided with the kit. The assays were performed on the same cell lines used to determine the levels of the MYCN gene messenger and listed in the paragraph: Treatments with Oligonucleotides-QT-PCR. The PNAs having SEQ ID NO: 1-12 were also tested on different cell lines which overexpress MYCN (Kelly, SKNBE2c, RH30, […] 1 and H69). The results are shown in Table 6 and confirm the selectivity and specificity of the inhibition effect of the PNAs on the product of protein translation of the MYCN gene. Chimeric oligonucleotides comprising DNA monomers and LNA monomers and having the MYCN gene as their target were tested in vitro on alveolar rabdomyosarcoma cells (RH30). […] The antisense oligonucleotides designed and synthesized by the Applicant according to the parameters described in the present invention were analyzed in vitro on rabdomyosarcoma cells (RH30).

MYCN gene [3] = test: QT-PCR, MYCN mRNA in Kelly cells; parameters: mRNA Inhibition (%)(Kelly): concentration or dose not given beside the values; details: for mRNA Inhibition (%)(Kelly): Table 7, SEQ ID NO: 5 and guanine-group mutants
Description: For the purpose of assessing the ability of the oligonucleotides of the present invention to modulate the expression of the target genes, their ability to reduce the quantity of messenger RNA was analyzed using the Real-Time PCR technique.
For this purpose, use was made of 24-well plates, which were seeded with 5.0×10^4 cells with 0.3 ml of OPTI-MEM (GIBCO BRL) medium, 4% FBS and 2 mM L-glutammine (experiments in triplicate) per well.
The cells were incubated for 24 hours at 37° C., in an atmosphere containing 5% CO2 to permit adherence to the base of the wells.
Each oligonucleotide analyzed, except for the PNA oligonucleotides, was incubated beforehand with 2 μl of Lipofectamine 2000 (Invitrogen), with 0.3 mL of serum-free OPTI-MEM (GIBCO BRL) medium.
For each well, the oligonucleotides were analyzed at the following final concentrations: • the antisense oligonucleotides siRNA and siRNA gapmer (i.e. the oligonucleotides containing one or more monomers of chemically modified nucleic acids at the 3′ or 5′ end, while in the central portion they have monomers of nucleic acids that have not been modified or have been modified at the level of the phosphodiester bond as a phosphorothioate bond) were used at 200 nM; • the antisense oligonucleotides containing phosphorothioate DNA monomers, the RNA antigene oligonucleotides (agRNA) and the oligonucleotides containing DNA monomers and LNA monomers were used at 10 μM; • the morpholino oligonucleotides were used at a concentration of 1 μM, and • the PNA oligonucleotides were administered at a concentration of 1 μM.
The cells were treated with the oligonucleotides, adding FBS up to 4% 6 hours after administration of the same. After 24 hours the total RNA was extracted from each well and purified using the RNeasy Mini Kit (QIAGEN).
Assays were performed on 8 cell lines obtained from 5 different human tumours which are correlated with MYCN expression, i.e.: • as a neuroblastoma model use was made of the cell lines Kelly, IMR-32 (where the MYCN gene is amplified and superexpressed) and SKNBE2c and LAN1 (where the MYCN gene is amplified and superexpressed and the p53 gene is mutated); • as a rabdomiosarcoma model use was made of the cell line RH30, where the MYCN gene is amplified and superexpressed; • as a Wilms' tumour model use was made of the cell line WiT49, where the MYCN gene is amplified and superexpressed; • as a retinoblastoma model use was made of the cell line Y79, where the MYCN gene is amplified and superexpressed; and • as a model of small cell lung cancer use was made of the cell line H69 where the MYCN gene is amplified and superexpressed.
As a control, use was made of the same cell lines as listed above treated with sterile water instead of oligonucleotides. Each RNA sample was quantified (in duplicate) using a NanoDrop ND-1000 spectrophotometer (NanoDrop Technologies). The first strand of cDNA was produced using the cDNA Synthesis Kit for RT-PCR (Roche). For the cDNA synthesis reaction a total of 1 μg of RNA was used. For the real-time PCR, 10 ng of cDNA in a final volume of 20 μl was used with SYBR Green Master Mix 2× (Applied Biosystems) (3 identical experiments were conducted in triplicate). Two housekeeping genes were used as positive controls: GAPDH and beta-actin (ACTB).
The conditions of the QT-PCR reaction were: 10 min at 95° C., 20 sec at 95° C., and 30 sec at 60° C., for 50 cycles.
(§1) As far as the PNA oligonucleotides are concerned, the results regarding their ability to inhibit the transcription of the MYCN gene and proliferation of Kelly cells are shown in Table 1.
The oligonucleotides were tested in vitro (at a concentration of 2.5 μM) to determine their ability to inhibit the transcription of the gene they are directed against by measuring the levels of the gene messenger in cellular models in which the gene of interest is overexpressed. The methods used are the ones described in example 1. […]

Kelly cells = test: Cellular proliferation assay (ATP-Lite), Kelly cells; details: Table 7, SEQ ID NO: 5 and guanine-group mutants
Description: For the purpose of assessing the gene modulation ability of the oligonucleotides of the present invention, the effect of their administration on cell viability was determined.
For this purpose 5×10^3 cells per well were seeded into 96-well cell culture plates (experiments conducted in triplicate) with 100 μl of OPTI-MEM (GIBCO BRL) medium containing 4% FBS and 2 mM of L-glutammine.
The PNA oligonucleotides were administered at different concentrations (1 μM-2.5 μM-5 μM-10 μM) in order to observe a dose-effect relationship.
As regards all the other oligonucleotides, the concentrations at which they administered are listed in the paragraph:
The viability of the treated cells was determined at 48, 72, 96 and 168 hours after treatment.
Cell viability was assessed by means of an ATP-Lite assay (Luminescence ATP Detection Assay System, PerkinElmer) and is reported as the ratio between the average signal of the treated wells compared to the average value of the wells of untreated control cells. The cells were processed following the instructions provided with the kit.
The assays were performed on the same cell lines used to determine the levels of the MYCN gene messenger and listed in the paragraph: Treatments with Oligonucleotides—QT-PCR.
as §1
The ability of the tested oligonucleotides to inhibit the messenger of the gene of interest was measured and the proliferative capacity of the cells following administration of the oligonucleotides was also assessed.

[4] = Table 8, DNA-LNA oligonucleotides used at 10 μM with Lipofectamine 2000
[5] = Table 8, DNA-LNA oligonucleotides used at 10 μM

Substance: SEQ ID NO: 24: single-stranded chimeric DNA-LNA oligonucleotide ATGCCGGGCATGATCT against MYCN (DNA at CT, LNA at AG, backbone and methylation of C not given here)
- mRNA inhibition (%) (MYCN gene [1]; [4]): 23%
- Cell Prolif. (%) [2, 5]: 75%

Substance: SEQ ID NO: 25: single-stranded chimeric DNA-LNA oligonucleotide ATGCCGGGCATGATCT against MYCN (DNA at AG, LNA at CT, backbone and methylation of C not given here)
- mRNA inhibition (%) (MYCN gene [1]; [4]): 24%
- Cell Prolif. (%) [2, 5]: 78%

Substance: SEQ ID NO: 26: double-stranded siRNA against MYCN, sense UGAAGAUGAUGAAGAGGAA, antisense SEQ ID NO: 57 (antisense UUCCUCUUCAUCAUCUUCA; listed as RNA, chemistry not given here)
- mRNA inhibition (%) (MYCN gene [1]; Table 9, siRNA and siRNA gapmer used at 200 nM with Lipofectamine 2000): 82%
- Cell Prolif. (%) ([2]; Table 9, siRNA and siRNA gapmer used at 200 nM): 28%

Substance: SEQ ID NO: 43: PNA GCTGAGTCGATGCGTG, SEQ ID NO: 5 with all groups of consecutive guanines mutated (all peptide nucleic acid (PNA); antigene PNA, 3' carrier peptide conjugation not given here per molecule)
- mRNA Inhibition (%)(Kelly) (MYCN gene [3]): 0%
- inhibitory activity (MYCN gene [3]; all groups of consecutive guanines of SEQ ID NO: 5 mutated): inhibitory activity of the PNAs to be lost
- (Kelly) Cell Prolif. % (Kelly cells): 100%

Substance: SEQ ID NO: 44: PNA GCTGAGTGGATGCGTG, modified SEQ ID NO: 5 with groups of consecutive guanines mutated (all peptide nucleic acid (PNA); antigene PNA, 3' carrier peptide conjugation not given here per molecule)
- mRNA Inhibition (%)(Kelly) (MYCN gene [3]): 25%
- (Kelly) Cell Prolif. % (Kelly cells): 89%

Substance: SEQ ID NO: 45: PNA GCTGGGTCGATGCGGG, modified SEQ ID NO: 5 with a group of consecutive guanines mutated (all peptide nucleic acid (PNA); antigene PNA, 3' carrier peptide conjugation not given here per molecule)
- mRNA Inhibition (%)(Kelly) (MYCN gene [3]): 47%
- (Kelly) Cell Prolif. % (Kelly cells): 69%

Substance: SEQ ID NO: 46: PNA GTTGGGTGGATGTGGG, modified SEQ ID NO: 5 (all peptide nucleic acid (PNA); antigene PNA, 3' carrier peptide conjugation not given here per molecule)
- mRNA Inhibition (%)(Kelly) (MYCN gene [3]): 58%
- (Kelly) Cell Prolif. % (Kelly cells): 60%
